Measured values reported in patent US6479476B1, “19-nor steroids substituted in position 11β, preparation method and intermediates, application as medicines and pharmaceutical compositions containing them” (Aventis Pharma S.A., priority 1997, dated 2002).
Like-named read-outs stand apart in the source and are kept apart here.

Key:
[1] = biological target: T1, recombinant human oestrogen receptor (Homo sapiens, UniProt P03372); experiment: Affinity for the human oestrogen receptor (REH), displacement of tritiated oestradiol, relative affinity ARL; assay type: binding
T1 construct: comprising the coding region for the human oestrogen receptor of wild type; made in house; host or cells: SF9 insect cells (ATCC CRL1711), baculovirus
T1 sequence (P03372 1-595): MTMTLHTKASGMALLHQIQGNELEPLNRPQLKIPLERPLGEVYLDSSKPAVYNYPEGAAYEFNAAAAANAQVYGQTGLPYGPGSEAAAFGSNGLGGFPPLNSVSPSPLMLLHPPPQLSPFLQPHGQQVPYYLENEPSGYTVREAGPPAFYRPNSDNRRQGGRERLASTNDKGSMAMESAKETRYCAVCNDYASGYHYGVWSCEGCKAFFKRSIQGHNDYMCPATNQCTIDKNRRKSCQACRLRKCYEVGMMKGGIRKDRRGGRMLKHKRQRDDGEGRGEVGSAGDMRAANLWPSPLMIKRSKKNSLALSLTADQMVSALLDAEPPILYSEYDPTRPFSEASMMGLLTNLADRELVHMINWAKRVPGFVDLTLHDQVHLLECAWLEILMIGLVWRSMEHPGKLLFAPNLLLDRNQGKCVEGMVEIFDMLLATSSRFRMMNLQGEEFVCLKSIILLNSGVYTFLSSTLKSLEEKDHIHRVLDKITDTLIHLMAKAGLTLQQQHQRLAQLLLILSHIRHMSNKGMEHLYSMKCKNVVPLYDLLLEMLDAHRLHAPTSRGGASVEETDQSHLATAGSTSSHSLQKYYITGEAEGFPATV
From the text: 2—Affinity of the Human Oestrogen Receptor (REH)
A cytosolic extract of SF9 cells containing the recombinant human oestrogen receptor is obtained by over-expression in an insect-Baculo-viros system of cells, according to the general methodology described by N. R. WEBB et al. (Journal of Methods in cell and Molecular Biology, (1990) vol 2 n°4, 173-188) and whose application is described for the expression of human hormonal receptors, for example the human glucocorticoid receptor (G.SRINIVASAN et al. Molecular Endocrinology (1990) vol 4 n°2 209-216).
The BaculoGold Transfection Kit (PharMingen, reference 21000K) is used to generate the recombinant baculovirus containing the fragment of DNAc described in the expression vector HEGO by L. TORA et al. (The EMBO Journal (1989) vol 8 n°7 1981-1986) comprising the coding region for the human oestrogen receptor of wild type with glycine in position 400.
The recombinant virus obtained in this way is used to express the […] receptor in the cells of insects SF9 (ATCC CRL1711), according to the known methodology previously cited.
2×10^7 SF9 cells are cultivated in a 175 cm^2 “Falcon” flask in TNM-FH “SIGMA” medium supplemented with 10% of foetal calf serum (FCS) and 50 micrograms/ml of gentamycine. After infection then incubation at 27° C. for 40 to 42 hours, the cells are lysed in 1 ml of lyse buffer (Tris 20 mM-HCl pH8, EDTA 0.5 mM, DTT 2mM, Glycerol 20%, KCl 400 mM) by a freezing-defrosting cycle that is repeated twice more. The supernatant, containing the recombinant human oestrogen receptor is preserved in liquid nitrogen in 0.5 ml amounts.
The supernatant is incubated at 0° C. for 24 hours with a consistent concentration (T) of oestradiol tritiated in the presence of growing concentrations either of cold oestradiol (0-1000×10^−9M), or of cold product to be tested (0-25000×10^−9M). The concentration of linked triated oestradiol (B) is then measured in each incubation by the dextran carbon adsorption technique.
3—Calculation of the Affinity Relative to Linking (ARL)
The 2 following curves are plotted: the percentage of 100×B/BO linked tritiated hormone in comparison to the logarithm of the concentration of cold reference hormone or in comparison to the logarithm of the concentration of cold product tested.
The soundness of the following equation is determined:
B0=Concentration of the linked tritiated hormone in the absence of any cold product,
B=Concentration of the linked tritiated hormone in the presence of an X concentration of cold product,
Bmin=Concentration of linked tritiated hormone for an incubation of this tritiated hormone in concentration (T) in the presence of a large excess of cold reference hormone (1000×10^−9) for human receptor.
The intersections of the right angle I50 and the curves, make it possible to evaluate the concentration of cold reference hormone (CH) and the tested cold product (CX) which inhibit 50% of the bond of the tritiated hormone on the receptor.
The relative affinity of the link (ARL) of the tested product is determined by the equation: […]

[2] = system: human mammary cells MCF-7; experiment: Effect on the proliferation of mammary cells (MCF-7, DNA quantitation after 7 days); assay type: cell-based; design: key: The molecules inducing a cellular growth identical to that observed with the solvent alone are classed “inactivated”; Inhibitor: those inducing cellular growth lower than that observed with the solvent are classed “inhibitor”; *Mixed: slight agonist activity in very weak concentrations and inhibitory activity in stronger concentrations; conditions: MCF-7 cells in steroid-free medium, 7 days of culture, DNA analysis; compared with oestradiol at 10^-10M = 100% agonist activity
From the text: 1—Effect on the Proliferation of Mammary Cells The proliferative activity of the molecules is studied comparatively with that of oestradiol on the human mammary cells MCF-7 in culture. To highlight the agonist effect of oestradiol and/or the molecules tested, the culture medium for the maintenance of the cells (rich in growth factors and in steroids) is replaced by a more impoverished medium, amongst others lacking in steroids (DMEM supplemented by 5% of serum with steroid removed and without phenol red). The cells undergo this deprivation two days before the start of the trial. After 7 days of culture in the presence of the products to be studied, the cellular proliferation is evaluated by quantitive analysis of the DNA. In each trial, the effect of the oestradiol at 10^−10M (cellular growth in the presence of oestradiol less cellular growth in the presence of solvent) determines the agonist activity at 100%. The activity of the molecules is evaluated in comparison to this internal control. The molecules inducing a cellular growth identical to that observed with the solvent alone are classed “inactivated”, those inducing cellular growth lower than that observed with the solvent are classed “inhibitor”.

[3] = incubation at 0° C. for 24 hours with tritiated oestradiol, ARL=100(CH)/(CX), oestradiol = 100

| Compound | Relative affinity of the link (ARL), EH oestradiol = 100, 24 H [1] | ACTIVITY (proliferative activity on MCF-7 cells) [2] | Relative affinity of the link (ARL), EH oestradiol = 100, 24 H [1, 3] |
| --- | --- | --- | --- |
| C[C@]12C[C@H](c3ccc(CCCN4CCCC4)cc3)[C@@H]3c4ccc(O)cc4CC[C@H]3[C@@H]1CC[C@@H]2O [Example 7, 11β-[4-[3-(1-pyrrolidinyl)propyl]phenyl]-estra-1,3,5(10)-trien-3,17β-diol] | 59 | Inhibitor |  |
| C[C@]12C[C@H](c3ccc(CCCN4CCCCC4)cc3)[C@@H]3c4ccc(O)cc4CC[C@H]3[C@@H]1CC[C@@H]2O [Example 9] |  | Inhibitor | 28 |
| C[C@]12C[C@H](c3ccc(CCCN4CCCCC4)cc3)[C@@H]3c4ccc(O)c(Cl)c4CC[C@H]3[C@@H]1CC[C@@H]2O [Example 11, 4-chloro-11β-[4-[3-(1-piperidinyl)propyl]phenyl]-estra-1,3,5(10) -trien-3,17β-diol] | 14 | Mixed |  |
| CCN(CC)CCCc1ccc([C@H]2C[C@]3(C)[C@@H](O)CC[C@H]3[C@@H]3CCc4c(ccc(O)c4Cl)[C@H]32)cc1 [Example 12, 4-chloro-11β-[4-[3-(1-diethylamino)propyl]phenyl]-estra-1,3,5(10)-trien-3,17β-diol] |  | Inhibitor | 28 |
| CC1(O)CCC2C3CCc4cc(O)ccc4C3C(c3ccc(CCCN4CCCCC4)cc3)CC21C (stereo not drawn) [Example 13, 17α-methyl-11β-[4-[3-(1-piperidininyl)propyl]phenyl]-estra-1,3,5(10)-trien-3,17β-diol] |  | Inhibitor | 42 |
| C[C@]12CC[C@@H]3c4ccc(O)cc4CC[C@H]3[C@@H]1CC[C@@H]2O [Oestradiol, reference compound] |  | Agonist |  |
